# According to patent publication US11505548B2, “Heterocyclic compounds and their use for treatment of helminthic infections and diseases” (Celgene Corporation, priority 2019, dated 2022):
# Read-outs that look alike come from different tables or passages of the source.
# System: Onchocerca gutturosa Adult Male Worms
# Assay: Onchocerciasis in vitro screening model, worm motility score
# Type: cell-based
# Conditions: read-out: O. gutturosa activity level (IC50 or MED)
# [1] = Onchocerca gutturosa, Table 1 O. gutturosa, levels A/B/C, motility or MTT readout not specified
# [2] = in vitro, Onchocerca gutturosa adult male worms, class A/B/C
Compound,IC50 [1],IC50 [2]
"CN(C)c1cccnc1Nc1nc(-c2ccc(S(=O)(=O)C3CCN(C4CC4)CC3)cn2)ns1 [Compound 145, N2-(3-(5-(1-cyclopropyl-piperidin-4-ylsulfonyl)pyridin-2-yl)-1,2,4-thiadiazol-5-yl)-N3,N3-dimethyl-pyridine-2,3-diamine]",0.5 to 5 µM,
"CC(=O)N(C)c1cc(C(F)(F)F)cnc1Nc1nc(-c2cc(OC3CCOCC3)ccn2)ns1 [Compound 306, N-methyl-N-(2-(3-(4-(tetrahydro-2H-pyran-4-yloxy)pyridin-2-yl)-1,2,4-thiadiazol-5-ylamino)-5-(trifluoromethyl)pyridin-3-yl)acetamide]",,< 0.2 µM
"CC(C)Oc1cnc(-c2nsc(Nc3ncccc3C(=O)N(C)C3CC3)n2)cc1C(F)(F)F [Compound 263, N-cyclo-propyl-2-(3-(5-isopropoxy-4-(trifluoro-methyl)pyridin-2-yl)-1,2,4-thiadiazol-5-ylamino)-N-methyl-nicotinamide]",,0.5 to 5 µM
"Cc1ccnc(-c2nsc(Nc3ncccc3F)n2)c1 [Compound 12, N-(3-fluoropyridin-2-yl)-3-(4-methylpyridin-2-yl)-1,2,4-thiadiazol-5-amine]",< 0.2 µM,
"COc1cccnc1Nc1nc(-c2cc(C)ccn2)ns1 [Compound 24, N-(3-methoxy-pyridin-2-yl)-3-(4-methyl-pyridin-2-yl)-1,2,4-thiadiazol-5-amine]",< 0.2 µM,
"CC(C)Oc1ccc(-c2nsc(Nc3ncc(C(C)C)cc3C(F)(F)F)n2)nc1 [Compound 165, 3-(5-isopropoxy-pyridin-2-yl)-N-(5-isopropyl-3-(trifluoromethyl)pyridin-2-yl)-1,2,4-thiadiazol-5-amine]",< 0.2 µM,
"Cc1cccnc1Nc1nc(-c2ccc(OC3CCN(C4CCCC4)CC3)cn2)ns1 [Compound 72, 3-(5-(1-cyclo-pentylpiperidin-4-yloxy)pyridin-2-yl)-N-(3-methylpyridin-2-yl)-1,2,4-thiadiazol-5-amine]",0.2 to 0.5 µM,
"CC(=O)N(C)c1cccnc1Nc1nc(-c2cc(C)ccn2)ns1 [Compound 208, N-methyl-N-(2-(3-(4-methylpyridin-2-yl)-1,2,4-thiadiazol-5-ylamino)pyridin-3-yl)acetamide]",,0.5 to 5 µM
"c1ccc(Nc2nc(-c3ccccn3)ns2)nc1 [Compound 33, N,3-di(pyridin-2-yl)-1,2,4-thiadiazol-5-amine]",< 0.2 µM,
"CC(=O)N(C)c1cccnc1Nc1nc(-c2ccc(NC34CC(C3)C4)cn2)ns1 [Compound 207, N-(2-(3-(5-(bicyclo [1.1.1]pentan-1-ylamino)pyridin-2-yl)-1,2,4-thiadiazol-5-ylamino)pyridin-3-yl)-N-methylacetamide]",,0.5 to 5 µM
"CC(C)COc1cnc(-c2nsc(Nc3ncccc3N(C)C)n2)cn1 [Compound 150, N2-(3-(5-isobutoxy-pyrazin-2-yl)-1,2,4-thiadiazol-5-yl)-N3,N3-dimethyl-pyridine-2,3-diamine]",0.5 to 5 µM,
"Cc1cccnc1Nc1nc(-c2ccc(OC3CCOCC3)cn2)no1 [Compound 16, N-(3-methyl-pyridin-2-yl)-3-(5-(tetrahydro-2H-pyran-4-yloxy)pyridin-2-yl)-1,2,4-oxadiazol-5-amine]",< 0.2 µM,
"c1ccc(-c2nsc(Nc3ccc(N4CCCCC4)cn3)n2)nc1 [Cmpd 6, N-(5-(piperidin-1-yl)pyridin-2-yl)-3-(pyridin-2-yl)-1,2,4-thiadiazol-5-amine]",< 0.2 µM,
"CC(C)Oc1cnc(-c2nsc(Nc3ncccc3C(C)C)n2)cc1C(=O)N(C)C [Compound 193, 5-isopropoxy-2-(5-(3-isopropylpyridin-2-ylamino)-1,2,4-thiadiazol-3-yl)-N,N-dimethy-lisonicotinamide]",0.2 to 0.5 µM,
"O=C1CCCN1c1cccnc1Nc1nc(-c2ccc(NC34CC(C3)C4)cn2)ns1 [Compound 204, 1-(2-(3-(5-(bicyclo [1.1.1]pentan-1-ylamino)pyridin-2-yl)-1,2,4-thiadiazol-5-ylamino)pyridin-3-yl)pyrrolidin-2-one]",,0.5 to 5 µM
